{"source": "patent US8946230B2", "about": "“Aryl- and heteroaryl- nitrogen-heterocyclic compounds as PDE10 inhibitors” (Amgen Inc., priority 2010, dated 2015)", "data": [{"target": "T1, PDE10 (UniProt Q8CA95)", "T1 sequence (Q8CA95 1-790)": "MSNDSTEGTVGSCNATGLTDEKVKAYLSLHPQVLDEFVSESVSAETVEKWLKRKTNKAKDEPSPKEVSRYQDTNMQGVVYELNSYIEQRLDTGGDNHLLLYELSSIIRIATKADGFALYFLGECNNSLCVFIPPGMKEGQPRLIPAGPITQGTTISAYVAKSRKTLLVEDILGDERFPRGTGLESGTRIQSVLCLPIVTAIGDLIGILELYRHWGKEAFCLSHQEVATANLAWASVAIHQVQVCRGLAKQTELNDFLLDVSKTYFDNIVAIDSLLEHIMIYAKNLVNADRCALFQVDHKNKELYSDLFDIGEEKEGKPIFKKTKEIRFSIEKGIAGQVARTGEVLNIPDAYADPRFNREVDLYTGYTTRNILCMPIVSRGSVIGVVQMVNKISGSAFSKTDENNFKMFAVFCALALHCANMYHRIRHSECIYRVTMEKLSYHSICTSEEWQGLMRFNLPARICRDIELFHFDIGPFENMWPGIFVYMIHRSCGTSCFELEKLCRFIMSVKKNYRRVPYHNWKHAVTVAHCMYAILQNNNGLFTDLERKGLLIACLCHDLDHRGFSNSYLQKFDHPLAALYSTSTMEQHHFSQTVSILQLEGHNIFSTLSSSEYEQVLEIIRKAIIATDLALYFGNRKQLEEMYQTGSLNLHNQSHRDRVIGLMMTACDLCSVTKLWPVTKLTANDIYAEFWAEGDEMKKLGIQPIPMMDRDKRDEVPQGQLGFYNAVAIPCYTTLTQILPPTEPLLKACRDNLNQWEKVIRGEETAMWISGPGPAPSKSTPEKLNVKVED", "assay": "PDE10 enzyme inhibition, IMAP TR-FRET assay (Example A: MPDE10A7 Enzyme Activity and Inhibition)", "type": "biochemical", "conditions": "Table 1A, Examples 11-56; read-out: PDE10 IC50", "description": "(§1) MPDE10A7 Enzyme Activity and Inhibition Enzyme Activity. An IMAP TR-FRET assay was used to analyze the enzyme activity (Molecular Devices Corp., Sunnyvale Calif.). 5 μL of serial diluted PDE10A (BPS Bioscience, San Diego, Calif.) or tissue homogenate was incubated with equal volumes of diluted fluorescein labeled cAMP or cGMP for 60 min in 384-well polystyrene assay plates (Corning, Corning, N.Y.) at room temperature. After incubation, the reaction was stopped by adding 60 μL of diluted binding reagents and was incubated for 3 hours to overnight at room temperature. The plates were read on an Envision (Perkin Elmer, Waltham, Mass.) for time resolved fluorescence resonance energy transfer. The data were analyzed with GraphPad Prism (La Jolla, Calif.). Enzyme Inhibition. To check the inhibition profile, 5 μL of serial diluted compounds were incubated with 5 μL of diluted PDE10 enzyme (BPS Bioscience, San Diego, Calif.) or tissue homogenate in a 384-well polystyrene assay plate (Corning, Corning, N.Y.) for 30 min at room temperature. After incubation, 10 μL of diluted fluorescein labeled cAMP or cGMP substrate were added and incubated for 60 min at room temperature. The reaction was stopped by adding 60 μL of diluted binding reagents and plates were read on an Envision (Perkin Elmer, Waltham, Mass.) for time resolved fluorescence resonance energy transfer. The data were analyzed with GraphPad Prism (La Jolla, Calif.).", "units": {"IC50": "µM"}, "values": [{"smiles": "Clc1ccc2[nH]c(C3CN(c4nccnc4-c4ccccc4Cl)C3)nc2c1", "note": "[Example 30, 5-chloro-2-{1-[3-(2-chloro-phenyl)-pyrazin-2-yl]-azetidin-3-yl}-1H-benzoimidazole]", "IC50": 0.0586}, {"smiles": "Clc1cccc(-c2nccnc2N2CC(c3nc4cc(Cl)ccc4[nH]3)C2)c1", "note": "[Example 31, 5-chloro-2-{1-[3-(3-chloro-phenyl)-pyrazin-2-yl]-azetidin-3-yl}-1H-benzoimidazole]", "IC50": 0.119}, {"smiles": "Clc1ccc(-c2nccnc2N2CC(c3nc4cc(Cl)ccc4[nH]3)C2)cc1", "note": "[Example 32, 5-chloro-2-{1-[3-(4-chloro-phenyl)-pyrazin-2-yl]-azetidin-3-yl}-1H-benzoimidazole]", "IC50": 0.141}, {"smiles": "Clc1ccc2[nH]c(C3CN(c4nccnc4-c4cccnc4)C3)nc2c1", "note": "[Example 33, 5-chloro-2-[1-(3-pyridin-3-yl-pyrazin-2-yl)-azetidin-3-yl]-1H-benzoimidazole]", "IC50": 0.538}, {"smiles": "Clc1ccc2[nH]c(C3CN(c4nccnc4-c4ccncc4)C3)nc2c1", "note": "[Example 34, 5-chloro-2-[1-(3-pyridin-4-yl-pyrazin-2-yl)-azetidin-3-yl]-1H-benzoimidazole]", "IC50": 0.134}, {"smiles": "CN(C)C(=O)c1nccnc1N1CC(c2nc3cc(Cl)ccc3[nH]2)C1", "note": "[Example 35, 3-[3-(5-chloro-1H-benzoimidazol-2-yl)-azetidin-1-yl]-pyrazine-2-carboxylic acid dimethylamide]", "IC50": 10}, {"smiles": "O=C(NC1CCOCC1)c1nccnc1N1CC(c2nc3cc(Cl)ccc3[nH]2)C1", "note": "[Example 36, 3-[3-(5-chloro-1H-benzoimidazol-2-yl)-azetidin-1-yl]-pyrazine-2-carboxylic acid (tetrahydro-pyran-4-yl)-amide]", "IC50": 3.28}, {"smiles": "O=C(NC[C@H]1CCCO1)c1nccnc1N1CC(c2nc3cc(Cl)ccc3[nH]2)C1", "note": "[Example 37, 3-[3-(5-chloro-1H-benzoimidazol-2-yl)-azetidin-1-yl]-pyrazine-2-carboxylic acid (tetrahydro-furan-2-ylmethyl)-amide]", "IC50": 2.53}, {"smiles": "O=C(NC[C@@H]1CCCO1)c1nccnc1N1CC(c2nc3cc(Cl)ccc3[nH]2)C1", "note": "[Example 38, 3-[3-(5-chloro-1H-benzoimidazol-2-yl)-azetidin-1-yl]-pyrazine-2-carboxylic acid (tetrahydro-furan-2-ylmethyl)-amide]", "IC50": 2.15}, {"smiles": "Cc1ccc2[nH]c(C3CN(c4nccnc4-c4ccccc4)C3)nc2c1", "note": "[Example 39, 5-methyl-2-(1-(3-phenylpyrazin-2-yl)azetidin-3-yl)-1H-benzo[d]imidazole]", "IC50": 0.0398}, {"smiles": "Clc1ccc2[nH]c(C3CN(c4nccnc4Nc4ccccc4)C3)nc2c1", "note": "[Example 40, 3-(3-(5-chloro-1H-benzo[d]imidazol-2-yl)azetidin-1-yl)-N-phenylpyrazin-2-amine]", "IC50": 0.63}, {"smiles": "CN(c1ccccc1)c1nccnc1N1CC(c2nc3cc(Cl)ccc3[nH]2)C1", "note": "[Example 41, 3-(3-(5-chloro-1H-benzo[d]imidazol-2-yl)azetidin-1-yl)-N-methyl-N-phenylpyrazin-2-amine]", "IC50": 0.074}, {"smiles": "Clc1ccc2[nH]c(C3CN(c4nccnc4Oc4ccccc4)C3)nc2c1", "note": "[Example 42, 5-chloro-2-(1-(3-phenoxypyrazin-2-yl)azetidin-3-yl)-1H-benzo[d]imidazole]", "IC50": 0.0809}, {"smiles": "CN1CCN(c2nccnc2N2CC(c3nc4cc(Cl)ccc4[nH]3)C2)CC1", "note": "[Example 43, 5-chloro-2-(1-(3-(4-methylpiperazin-1-yl)pyrazin-2-yl)azetidin-3-yl)-1H-benzo[d]imidazole]", "IC50": 0.305}, {"smiles": "Clc1ccc2[nH]c(C3CN(c4nccnc4N4CCCCC4)C3)nc2c1", "note": "[Example 44, 5-chloro-2-(1-(3-(piperidin-1-yl)pyrazin-2-yl)azetidin-3-yl)-1H-benzo[d]imidazole]", "IC50": 0.92}, {"smiles": "COc1nccnc1N1CC(c2nc3cc(Cl)ccc3[nH]2)C1", "note": "[Example 45, 5-chloro-2-(1-(3-methoxypyrazin-2-yl)azetidin-3-yl)-1H-benzo[d]imidazole]", "IC50": 0.499}, {"smiles": "Cc1ccc2[nH]c(C3CN(c4nccnc4N4CCOCC4)C3)nc2c1", "note": "[Example 46, 4-(3-(3-(5-methyl-1H-benzo[d]imidazol-2-yl)azetidin-1-yl)pyrazin-2-yl)morpholine]", "IC50": 0.6}, {"smiles": "Cc1ccc2[nH]c(C3CN(c4ncccc4Cl)C3)nc2c1", "note": "[Example 47, 2-(1-(3-chloropyridin-2-yl)azetidin-3-yl)-5-methyl-1H-benzo[d]imidazole]", "IC50": 3.84}, {"smiles": "Cc1ccc2[nH]c(C3CN(c4nccnc4Cl)C3)nc2c1", "note": "[Example 48, 2-(1-(3-chloropyrazin-2-yl)azetidin-3-yl)-5-methyl-1H-benzo[d]imidazole]", "IC50": 0.456}, {"smiles": "Clc1ccc2[nH]c(C3CN(c4ncccc4OC4CCOCC4)C3)nc2c1", "note": "[Example 49, 5-chloro-2-(1-(3-(tetrahydro-2H-pyran-4-yloxy)pyridin-2-yl)azetidin-3-yl)-1H-benzo[d]imidazole]", "IC50": 0.168}, {"smiles": "Clc1ccc2[nH]c(C3CN(c4nccnc4N4CCOCC4)C3)nc2c1", "note": "[Example 50, 4-(3-(3-(5-chloro-1H-benzo[d]imidazol-2-yl)azetidin-1-yl)pyrazin-2-yl)morpholine]", "IC50": 0.134}, {"smiles": "Clc1ccc2[nH]c(C3CN(c4nccnc4C4=CCOCC4)C3)nc2c1", "note": "[Example 51, 5-chloro-2-(1-(3-(3,6-dihydro-2H-pyran-4-yl)pyrazin-2-yl)azetidin-3-yl)-1H-benzo[d]imidazole]", "IC50": 0.442}, {"smiles": "Clc1ccc2[nH]c(C3CN(c4ncccc4Br)C3)nc2c1", "note": "[Example 52, 2-(1-(3-bromopyridin-2-yl)azetidin-3-yl)-5-chloro-1H-benzo[d]imidazole]", "IC50": 1.82}, {"smiles": "Clc1ccc2[nH]c(C3CN(c4nccnc4Cl)C3)nc2c1", "note": "[Example 53, 5-chloro-2-(1-(3-chloropyrazin-2-yl)azetidin-3-yl)-1H-benzo[d]imidazole]", "IC50": 1.16}, {"smiles": "Clc1ccc2[nH]c(C3CN(c4ncccc4Cl)C3)nc2c1", "note": "[Example 54, 5-chloro-2-(1-(3-chloropyridin-2-yl)azetidin-3-yl)-1H-benzo[d]imidazole]", "IC50": 0.00781}, {"smiles": "Clc1ccc2[nH]c(C3CN(c4nc(Cl)ncc4Cl)C3)nc2c1", "note": "[Example 55, 5-chloro-2-(1-(2,5-dichloropyrimidin-4-yl)azetidin-3-yl)-1H-benzo[d]imidazole]", "IC50": 0.52}, {"smiles": "Clc1ccc2[nH]c(C3CN(c4ncccc4C4CCOCC4)C3)nc2c1", "note": "[Example 56, 5-chloro-2-(1-(3-(tetrahydro-2H-pyran-4-yl)pyridin-2-yl)azetidin-3-yl)-1H-benzo[d]imidazole]", "IC50": 0.987}]}, {"target": "T1, PDE10", "assay": "PDE10 enzyme inhibition, IMAP TR-FRET assay (Example A: MPDE10A7 Enzyme Activity and Inhibition)", "type": "biochemical", "conditions": "Table 2A, Examples 61-64; read-out: IC50", "description": "as §1", "units": {"IC50": "µM"}, "values": [{"smiles": "CC1CCN(c2nccnc2N2CC(c3ccc4ccccc4n3)C2)CC1", "note": "[Example 61, 2-{1-[3-(4-Methyl-piperidin-1-yl)-pyrazin-2-yl]-azetidin-3-yl}-quinoline]", "IC50": 3.12}, {"smiles": "OCC1CCN(c2nccnc2N2CC(c3ccc4ccccc4n3)C2)CC1", "note": "[Example 62, {1-[3-(3-Quinolin-2-yl-azetidin-1-yl)-pyrazin-2-yl]-piperidin-4-yl}-methanol]", "IC50": 0.358}, {"smiles": "CC1CCN(c2nccnc2N2CC(c3ccc4ccccc4n3)C2)C1", "note": "(centres unmarked) [Example 63, 2-{1-[3-(3-Methyl-pyrrolidin-1-yl)-pyrazin-2-yl]-azetidin-3-yl}-quinoline]", "IC50": 0.641}, {"smiles": "COc1cccc(-c2nccnc2N2CC(c3ccc4ccccc4n3)C2)c1", "note": "[Example 64, 2-{1-[3-(3-Methoxy-phenyl)-pyrazin-2-yl]-azetidin-3-yl}-quinoline]", "IC50": 0.0175}]}, {"target": "T1, PDE10", "assay": "PDE10 enzyme inhibition, IMAP TR-FRET assay (Example A: MPDE10A7 Enzyme Activity and Inhibition)", "type": "biochemical", "conditions": "read-out: IC50", "description": "as §1", "units": {"IC50": "µM"}, "values": [{"smiles": "c1ccc2nc(C3CN(c4nccnc4N4CCCCC4)C3)ccc2c1", "note": "[Example 57]", "IC50": 0.689}, {"smiles": "Cc1cccc(-c2nccnc2N2CC(c3ccc4ccccc4n3)C2)c1", "note": "[Example 58, 2-[1-(3-M-TOLYL-PYRAZIN-2-YL)-AZETIDIN-3-YL]-QUINOLINE]", "IC50": 0.00761}, {"smiles": "c1cnc(N2CC(c3ccc4ccccc4n3)C2)c(N2CCCCC2)c1", "note": "[Example 59, 2′-(3-QUINOLIN-2-YL-AZETIDIN-1-YL)-3,4,5,6-TETRAHYDRO-2H-[1,3′]BIPYRIDINYL]", "IC50": 0.068}, {"smiles": "COc1cccc(-c2cccnc2N2CC(c3ccc4ccccc4n3)C2)c1", "note": "[Example 60, 2-{1-[3-(3-METHOXY-PHENYL)-PYRIDIN-2-YL]-AZETIDIN-3-YL}-QUINOLINE]", "IC50": 6.82}]}]}
